According to patent US10472347B2, “Aminopyrazine compounds with A2A antagonist properties” (Merck Sharp & Dohme Corp., priority 2014, dated 2019):

Molecular target: T1, human A2a receptor (Homo sapiens, UniProt P29274)
T1 construct: purchased Perkin-Elmer RBHA2AM400UA; host or cells: HEK293 cells (membranes)
Test: A2a competition binding assay, Scintillation Proximity technology
Settings: membranes from HEK293 cells expressing human A2a receptor; Ki by Cheng-Prusoff equation
Summary of the method: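 Membranes from HEK293 cells expressing human A2a, adenosine deaminase-treated, incubated 1 h at room temperature with compound (3000 to 0.15 nM) and 0.5 nM tritiated pyrazolotriazolopyrimidine radioligand on WGA SPA beads in Ca/Mg-free PBS + 10 mM MgCl2. Non-specific binding with 1 μM CGS15943; Ki by Cheng-Prusoff.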

T1 sequence (P29274 whole entry): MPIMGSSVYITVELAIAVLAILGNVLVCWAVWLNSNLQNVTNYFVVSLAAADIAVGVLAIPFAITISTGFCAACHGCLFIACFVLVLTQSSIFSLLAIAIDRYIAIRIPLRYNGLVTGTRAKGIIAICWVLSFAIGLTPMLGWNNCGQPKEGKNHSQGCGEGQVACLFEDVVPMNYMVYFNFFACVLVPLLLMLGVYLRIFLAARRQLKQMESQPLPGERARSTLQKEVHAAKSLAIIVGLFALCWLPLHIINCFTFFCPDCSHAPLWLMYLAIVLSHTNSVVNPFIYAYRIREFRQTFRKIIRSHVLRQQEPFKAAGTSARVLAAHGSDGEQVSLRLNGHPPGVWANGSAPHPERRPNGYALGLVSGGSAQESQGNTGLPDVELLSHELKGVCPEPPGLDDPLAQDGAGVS

SMILES | Ki [nM]
Cc1nc(C(=O)NCc2cccc3cccnc23)c(N)nc1-n1nccn1 [Ex-275, 3-amino-6-methyl-N-(quinolin-8-ylmethyl)-5-(2H-1,2,3-triazol-2-yl)pyrazine-2-carboxamide] | 2.1
CCOC(=O)c1nc(C)c(-n2nccn2)nc1N [Ex-276, ethyl 3-amino-6-methyl-5-(2H-1,2,3-triazol-2-yl)pyrazine-2-carboxylate] | 408
Cc1cccnc1CNC(=O)c1nc(C)c(-n2nccn2)nc1N [Ex-277, 3-amino-6-methyl-N-[(3-methylpyridin-2-yl)methyl]-5-(2H-1,2,3-triazol-2-yl)pyrazine-2-carboxamide] | 3.3
Cc1cccnc1CNC(=O)c1nc(C)c(-n2ccnn2)nc1N [Ex-278, 3-amino-6-methyl-N-[(3-methylpyridin-2-yl)methyl]-5-(1H-1,2,3-triazol-1-yl)pyrazine-2-carboxamide] | 191
Cc1nc(C(=O)NCc2ccc(Cl)cc2Cl)c(N)nc1-n1nccn1 [Ex-279, 3-amino-N-(2,4-dichlorobenzyl)-6-methyl-5-(2H-1,2,3-triazol-2-yl)pyrazine-2-carboxamide] | 59.3
Cc1nc(C(=O)NC2CCNc3ccccc32)c(N)nc1-n1nccn1 (stereo not drawn) [Ex-280, 3-amino-6-methyl-N-(1,2,3,4-tetrahydroquinolin-4-yl)-5-(2H-1,2,3-triazol-2-yl)pyrazine-2-carboxamide] | 148
Nc1nc(-n2nccn2)c(Cl)nc1C(=O)N[C@@H]1CCc2ccccc21 [Ex-281, 3-amino-6-chloro-N-[(1R)-2,3-dihydro-1H-inden-1-yl]-5-(2H-1,2,3-triazol-2-yl)pyrazine-2-carboxamide] | 5.7
Cc1cccnc1CNC(=O)c1nc(Cl)c(-n2nccn2)nc1N [Ex-282, 3-amino-6-chloro-N-[(3-methylpyridin-2-yl)methyl]-5-(2H-1,2,3-triazol-2-yl)pyrazine-2-carboxamide] | 1.4
COc1ccccc1CNC(=O)c1nc(Cl)c(-n2nccn2)nc1N [Ex-283, 3-amino-6-chloro-N-(2-methoxybenzyl)-5-(2H-1,2,3-triazol-2-yl)pyrazine-2-carboxamide] | 2.4
Nc1nc(-n2nccn2)c(Cl)nc1C(=O)NCc1ccccc1OC(F)(F)F [Ex-284] | 6.5
Nc1nc(-n2nccn2)c(Cl)nc1C(=O)N[C@@H](c1ccccc1)C(F)(F)F [Ex-286, 3-amino-6-chloro-5-(2H-1,2,3-triazol-2-yl)-N-[(1S)-2,2,2-trifluoro-1-phenylethyl]pyrazine-2-carboxamide] | 124
C[C@@H](NC(=O)c1nc(Cl)c(-n2nccn2)nc1N)c1ccc2ccccc2n1 [Ex-287, 3-amino-6-chloro-N-[(1R)-1-quinolin-2-ylethyl]-5-(2H-1,2,3-triazol-2-yl)pyrazine-2-carboxamide] | 131
Nc1nc(-n2nccn2)c(Cl)nc1C(=O)NCc1ccccc1Br [Ex-288, 3-amino-N-(2-bromobenzyl)-6-chloro-5-(2H-1,2,3-triazol-2-yl)pyrazine-2-carboxamide] | 1.9
Nc1nc(-n2nccn2)c(Cl)nc1C(=O)NCCc1ccccc1Br [Ex-289, 3-amino-N-[2-(2-bromophenyl)ethyl]-6-chloro-5-(2H-1,2,3-triazol-2-yl)pyrazine-2-carboxamide] | 34.8
CN(Cc1cccc2cccnc12)C(=O)c1nc(Cl)c(-n2nccn2)nc1N [Ex-290, 3-amino-6-chloro-N-methyl-N-(quinolin-8-ylmethyl)-5-(2H-1,2,3-triazol-2-yl)pyrazine-2-carboxamide] | 318
Nc1nc(-n2nccn2)c(Cl)nc1C(=O)N1CCc2cccc(Br)c2C1 [Ex-292, 3-[(8-bromo-3,4-dihydroisoquinolin-2(1H)-yl)carbonyl]-5-chloro-6-(2H-1,2,3-triazol-2-yl)pyrazin-2-amine] | 54.8
Nc1nc(-n2nccn2)c(Cl)nc1C(=O)NC1CCNc2ccccc21 (stereo not drawn) [Ex-293, 3-amino-6-chloro-N-(1,2,3,4-tetrahydroquinolin-4-yl)-5-(2H-1,2,3-triazol-2-yl)pyrazine-2-carboxamide] | 107
COc1ccc(CCNC(=O)c2nc(Cl)c(-n3nccn3)nc2N)cc1OC [Ex-294, 3-amino-6-chloro-N-[2-(3,4-dimethoxyphenyl)ethyl]-5-(2H-1,2,3-triazol-2-yl)pyrazine-2-carboxamide] | 68.8
Nc1nc(-n2nccn2)c(Cl)nc1C(=O)NCc1cnn2ccccc12 [Ex-295, 3-amino-6-chloro-N-(pyrazolo[1,5-a]pyridin-3-ylmethyl)-5-(2H-1,2,3-triazol-2-yl)pyrazine-2-carboxamide] | 13.6
Nc1nc(-n2nccn2)c(Cl)nc1C(=O)NCc1cccc2cnccc12 [Ex-296, 3-amino-6-chloro-N-(isoquinolin-5-ylmethyl)-5-(2H-1,2,3-triazol-2-yl)pyrazine-2-carboxamide] | 35.6
Nc1nc(-n2nccn2)c(Cl)nc1C(=O)NCc1cccc2ccncc12 [Ex-297, 3-amino-6-chloro-N-(isoquinolin-8-ylmethyl)-5-(2H-1,2,3-triazol-2-yl)pyrazine-2-carboxamide] | 1.65
Nc1nc(-n2nccn2)c(Cl)nc1C(=O)NCc1nc2ccccc2s1 [Ex-298, 3-amino-N-(1,3-benzothiazol-2-ylmethyl)-6-chloro-5-(2H-1,2,3-triazol-2-yl)pyrazine-2-carboxamide] | 32.9
Nc1nc(-n2nccn2)c(Cl)nc1C(=O)NCc1nc2ccccc2o1 [Ex-299, 3-amino-N-(1,3-benzoxazol-2-ylmethyl)-6-chloro-5-(2H-1,2,3-triazol-2-yl)pyrazine-2-carboxamide] | 33.6
Nc1nc(-n2nccn2)c(Cl)nc1C(=O)NCc1cccc2nccnc12 [Ex-300, 3-amino-6-chloro-N-(quinoxalin-5-ylmethyl)-5-(2H-1,2,3-triazol-2-yl)pyrazine-2-carboxamide] | 44.4
Nc1nc(-n2nccn2)c(Cl)nc1C(=O)NCc1ccnc2ccccc12 [Ex-301, 3-amino-6-chloro-N-(quinolin-4-ylmethyl)-5-(2H-1,2,3-triazol-2-yl)pyrazine-2-carboxamide] | 182
Nc1nc(-n2nccn2)c(Cl)nc1C(=O)NCc1nc2ccccc2[nH]1 [Ex-302, 3-amino-N-(1H-benzimidazol-2-ylmethyl)-6-chloro-5-(2H-1,2,3-triazol-2-yl)pyrazine-2-carboxamide] | 28.3
Nc1ccccc1CNC(=O)c1nc(Cl)c(-n2nccn2)nc1N [Ex-303, 3-amino-N-(2-aminobenzyl)-6-chloro-5-(2H-1,2,3-triazol-2-yl)pyrazine-2-carboxamide] | 14.4
Nc1cccc(F)c1CNC(=O)c1nc(Cl)c(-n2nccn2)nc1N [Ex-304, 3-amino-N-(2-amino-6-fluorobenzyl)-6-chloro-5-(2H-1,2,3-triazol-2-yl)pyrazine-2-carboxamide] | 3.6
Nc1nc(-n2nccn2)c(Cl)nc1C(=O)NCc1cnc2ccccn12 [Ex-305, 3-amino-6-chloro-N-(imidazo[1,2-a]pyridin-3-ylmethyl)-5-(2H-1,2,3-triazol-2-yl)pyrazine-2-carboxamide] | 49.5
Nc1nc(-n2nccn2)c(Cl)nc1C(=O)NCc1ccc2ccccc2n1 [Ex-306, 3-amino-6-chloro-N-(quinolin-2-ylmethyl)-5-(2H-1,2,3-triazol-2-yl)pyrazine-2-carboxamide] | 48.6
